Experiments:
Assay type in all cases: ADME, organism-based
[1] = Clearance in Wistar rat at 3 mg/kg, iv; design: dose 3 mg/kg, route intravenous; details: in vivo
[2] = Cmax in Wistar rat at 10 mg/kg, po; design: dose 10 mg/kg, route oral; details: in vivo
[3] = Volume of distribution in Wistar rat at 3 mg/kg, iv; design: dose 3 mg/kg, route intravenous; details: in vivo, read-out: Vdss
[4] = AUC in Wistar rat at 10 mg/kg, po; design: dose 10 mg/kg, route oral; details: plasma
[5] = Oral bioavailability in Wistar rat at 10 mg/kg, po; details: in vivo
[6] = Half life in Wistar rat at 10 mg/kg, po; design: dose 10 mg/kg, route oral; details: in vivo
[7] = Half life in Wistar rat at 3 mg/kg, iv; design: dose 3 mg/kg, route intravenous; details: in vivo

clearance [1] [mL/min/kg]	Cmax [2] [nM]	Vd [3] [L/kg]	AUC [4] [ng·h/mL]	bioavailability [5] [%]	half-life [6] [min]	half-life [7] [min]	Structure (SMILES)
52	513	3.1	733	23	62	82	C[C@@H](CN1c2ccc(F)cc2CC1(C)C)NC(=O)O[C@@H](CC1CCCCC1)C(=O)N1CCOCC1
52	118	1.76	133	4	51	43	C[C@@H](CN1CC(C)(C)c2cc(F)ccc21)NC(=O)[C@H](CC1CCCCC1)NC(=O)N1CCOCC1
52	774	4.1	1350	42	69	100	C[C@@H](CN1CC(C)(C)c2cc(F)ccc21)NC(=O)O[C@@H](CC1CCCCC1)C(=O)N1CCOCC1

Source: ChEMBL document CHEMBL1146890, “Arylaminoethyl carbamates as a novel series of potent and selective cathepsin S inhibitors” (Bioorg Med Chem Lett, 2006)
